Laboratory results published in US5869512A, “Azole compounds with antimycotic activity for human and veterinary use” (Zambon Group S.p.A, priority 1996, dated 1999).
≈ marks a conversion by molar mass, not a printed value. Where two headings read alike, the source gives them in different places.

Legend:
Candida albicans 1040 = assay: In vivo oral antimycotic effectiveness, systemic candidiasis; parameters: species or system mice (Albino Charles River, CD1 strain); conditions: mice, oral at 0, 4, 24, 48 hours after i.v. infection; for PD50 (medium protective dose) at the 14th day: 20160 min; for ED50: Candida albicans, 1040, in Mus musculus, po, 336 h, read-out: PD50 (medium protective dose) at the 14th day
Protocol: (§1) Albino Charles River mice (CD1 strain) weighing from 23 to 25 g, normally feed with a standard diet and water ad libitum were employed.
(§2) Each animal has been intravenously (for systemic candidiasis, crytpococcosis, aspergillosis), intracranially (for intracranial cryptococcosis) or nasally (for pulmonary aspergillosis) treated with a suspension (0.2 ml containing 2.5×10^7 cells/ml) of the due microorganism in physiological. Right after the injection and after 4, 24 and 48 hours the animals has been orally administered (in 2% Arabic gum) geometrically progressive increasing doses of the compound under test. An infected group has been used as control.
(§3) The mortality monitoring of the mice has been prolonged up to 14 days. The medium protective dose (PD50) has been calculated by the probits analysis (L. Lison--"Statistica applicata alla biologia sperimentale. La programmazione dell'esperimento e l'analisi dei risultati"--Casa Editrice Ambrosiana, 1961) on the basis of the number of animals survived at each concentration.
(§4) Fluconazole and Itraconazole were taken as reference compounds.

A. fumigatus [1] = assay: In vitro growth inhibition, macromethod of scalar broth dilution (SDB); type: cell-based, Aspergillus fumigatus; conditions: for MIC: Aspergillus fumigatus, 168 h, read-out: MIC (minimum inhibiting concentration)
From the text: (§5) A) The activity inhibiting the growth of mycetes has been evaluated by the macromethods of the scalar broth dilution in geometrical progression (M. R. McGinnis and M. G. Rinaldi, "Antimycotic drugs: mechanisms of action, drug resistance, susceptibility testing and assay of activity in biological fluids", in Antibiotic in Laboratory Medicine, Ed. V. Lorian, Baltimore 1991).
(§6) As growing medium Yeast Nitrogen Base broth (YNB) and Sabouraud Dextrose broth (SDB) were employed for yeasts and moulds respectively.
(§7) Fluconazole has been taken as reference compound.

C. neoformans = assay: In vitro growth inhibition, macromethod of scalar broth dilution (YNB); type: cell-based, Cryptococcus neoformans
From the text: as §5, §6, §7

T. mentagrophytes = assay: In vitro growth inhibition, macromethod of scalar broth dilution (SDB); type: cell-based, Trichophyton mentagrophytes; conditions: for MIC: Trichophyton mentagrophytes, 168 h, read-out: MIC (minimum inhibiting concentration)
From the text: as §5, §6, §7

C. albicans 1040 = assay: In vitro growth inhibition, macromethod of scalar broth dilution (YNB); type: cell-based, Candida albicans
From the text: as §5, §6, §7

F. verticilloides = assay: In vitro antimycotic activity, dilution in agar (mycetes); type: cell-based, Fusarium verticilloides; conditions: casitone agar pH 7, 32° C., 1-10 days
Protocol: (§8) B) The activity inhibiting the growth of yeasts and filamentosous fungi has been evaluated by the method of the dilution in agar. The minimum inhibiting concentration at 50% (MIC50) was measured by incorporating into the growing medium decreasing concentrations of the tested compounds thus yielding scalar concentration on basis 2, from […].
(§9) As growing medium casitone agar buffered at pH=7 (casitone 9 g, glucose 20 g, sodium citrate 10 g, leaven extract 5 g, agar 18 g, potassium biphosphate 0.54 g, sodium biphosphate 3.34 g, distilled water 1,000 ml) was employed.
(§10) For evaluating the activity against the mycetes the growing mediums containing the scalar concentrations of the compounds to be tested were inoculated with 1 μl of a suspension of 5×10^5 of spores/ml (conides or endospores) obtained from duly sporulated coltures. The inoculated growing mediums were incubated at 32° C. and the measurements were effected after 1, 2, 3, 5, 7 and 10 days.
(§11) Fluconazole, Itraconazole and Amphotericin B have been taken as reference compounds.

A. niger = assay: as above; type: cell-based, Aspergillus niger; conditions: casitone agar pH 7, 32° C., 1-10 days
Protocol: as §8, §9, §10, §11

A. terreus = assay: as above; type: cell-based, Aspergillus terreus; conditions: casitone agar pH 7, 32° C., 1-10 days
Protocol: as §8, §9, §10, §11

R. pusillus = assay: as above; type: cell-based, Rhyzomucor pusillus; conditions: casitone agar pH 7, 32° C., 1-10 days
Protocol: as §8, §9, §10, §11

A. fumigatus [2] = assay: as above; type: cell-based, Aspergillus fumigatus; conditions: casitone agar pH 7, 32° C., 1-10 days
Protocol: as §8, §9, §10, §11

A. flavusalis = assay: as above; type: cell-based, Aspergillus flavus; conditions: casitone agar pH 7, 32° C., 1-10 days
Protocol: as §8, §9, §10, §11

Acremonium = assay: as above; type: cell-based; conditions: casitone agar pH 7, 32° C., 1-10 days
Protocol: as §8, §9, §10, §11

Pseudoallescheria = assay: as above; type: cell-based; conditions: casitone agar pH 7, 32° C., 1-10 days
Protocol: as §8, §9, §10, §11

Mucor = assay: as above; type: cell-based; conditions: casitone agar pH 7, 32° C., 1-10 days
Protocol: as §8, §9, §10, §11

Trichoderma = assay: as above; type: cell-based; conditions: casitone agar pH 7, 32° C., 1-10 days
Protocol: as §8, §9, §10, §11

A. corymbifera = assay: as above; type: cell-based, Absidia corymbifera; conditions: casitone agar pH 7, 32° C., 1-10 days
Protocol: as §8, §9, §10, §11

F. proliferatum = assay: as above; type: cell-based, Fusarium proliferatum; conditions: casitone agar pH 7, 32° C., 1-10 days
Protocol: as §8, §9, §10, §11

A. alliaceus = assay: as above; type: cell-based, Aspergillus alliaceus; conditions: casitone agar pH 7, 32° C., 1-10 days
Protocol: as §8, §9, §10, §11

[3] = test system: Aspergillus fumigatus MOL-4; assay: In vivo oral antimycotic effectiveness, pulmonary aspergillosis; parameters: species or system mice (Albino Charles River, CD1 strain); conditions: MOL4, 336 h, mice, oral at 0, 4, 24, 48 hours after nasal infection, read-out: PD50 (medium protective dose) at the 14th day
Protocol: as §1, §2, §3, §4

[4] = test system: Cryptococcus neoformans ISM; assay: In vivo oral antimycotic effectiveness, intracranial cryptococcosis; parameters: species or system mice (Albino Charles River, CD1 strain); conditions: 336 h, mice, oral at 0, 4, 24, 48 hours after intracranial infection, read-out: PD50 (medium protective dose) at the 14th day
Protocol: as §1, §2, §3, §4

[5] = test system: Cryptococcus neoformans 3443; assay: In vivo oral antimycotic effectiveness, systemic cryptococcosis; parameters: species or system mice (Albino Charles River, CD1 strain); conditions: 336 h, mice, oral at 0, 4, 24, 48 hours after i.v. infection, read-out: PD50 (medium protective dose) at the 14th day
Protocol: as §1, §2, §3, §4

[6] = test system: Aspergillus fumigatus MOL-4; assay: In vivo oral antimycotic effectiveness, systemic aspergillosis; parameters: species or system mice (Albino Charles River, CD1 strain); conditions: MOL4, 336 h, mice, oral at 0, 4, 24, 48 hours after i.v. infection, read-out: PD50 (medium protective dose) at the 14th day
Protocol: as §1, §2, §3, §4

[7] = A. fumigatus, SDB, 28° C., 7 days, 2A, 3A, 3B tested as nitrates
[8] = C. neoformans, YNB, 35° C., 48 hours, 2A, 3A, 3B tested as nitrates
[9] = T. mentagrophytes, SDB, 28° C., 7 days, 2A, 3A, 3B tested as nitrates
[10] = C. albicans 1040, YNB, 35° C., 48 hours, 2A, 3A, 3B tested as nitrates
[11] = Cryptococcus neoformans, 48 h, C. neoformans, YNB, 35° C., 48 hours, 2A, 3A, 3B tested as nitrates, read-out: IC50
[12] = Candida albicans, 1040, 48 h, C. albicans 1040, YNB, 35° C., 48 hours, 2A, 3A, 3B tested as nitrates, read-out: IC50

SMILES | ED50 (Candida albicans 1040) [mg/kg] | MIC (A. fumigatus [1]; [7]) [µg/mL] | IC50 (C. neoformans; [11]) [µg/mL] | ED50 [3] [mg/kg] | MIC (T. mentagrophytes; [9]) [µg/mL] | ED50 [4] [mg/kg] | ED50 [5] [mg/kg] | ED50 [6] [mg/kg] | further results
CC(C)(COC(F)(F)C(F)F)C(O)(Cn1cncn1)c1ccc(F)cc1F (single isomer, unassigned; (+)) [Compound 1B] |  |  |  |  |  |  |  |  | PD50 (medium protective dose) at the 14th day (Candida albicans 1040): > 2 mg/kg/os; MIC (minimum inhibiting concentration) (A. fumigatus [1]; [7]): > 128 µg/mL; IC50 (C. neoformans; [8]): 1 µg/mL (≈ 2.52 µM); MIC (minimum inhibiting concentration) (T. mentagrophytes; [9]): 32 µg/mL (≈ 80.5 µM); IC50 (C. albicans 1040; [10]): 1 µg/mL (≈ 2.52 µM)
CC(C)(COC(F)(F)C(F)F)C(O)(Cn1cncn1)c1ccc(F)cc1F (single isomer, unassigned; (-)) [Compound 1A, (-) 2-(2,4-difluorophenyl)-4-(1,1,2-tetrafluoroethoxy)-3,3-dimethyl-1-(1H-1,2,4-triazol-1-yl)-2-butanol] |  |  |  |  |  |  |  |  | PD50 (medium protective dose) at the 14th day (Candida albicans 1040): 0.64 mg/kg/os; MIC (minimum inhibiting concentration) (A. fumigatus [1]; [7]): 4 µg/mL (≈ 10.1 µM); IC50 (C. neoformans; [8]): 0.0078 µg/mL (≈ 0.0196 µM); MIC (minimum inhibiting concentration) (T. mentagrophytes; [9]): 0.125 µg/mL (≈ 0.315 µM); IC50 (C. albicans 1040; [10]): 0.0078 µg/mL (≈ 0.0196 µM)
C[C@@H]1[C@H](O)[C@@H](C)/C=C/C=C/C=C/C=C/C=C/C=C/C=C/[C@H](O[C@@H]2O[C@H](C)[C@@H](O)[C@H](N)[C@@H]2O)C[C@@H]2O[C@](O)(C[C@@H](O)C[C@@H](O)[C@H](O)CC[C@@H](O)C[C@@H](O)CC(=O)O[C@H]1C)C[C@H](O)[C@H]2C(=O)O [Amphotericin B] |  |  |  |  |  |  |  |  | MIC50 (F. verticilloides): 2 µg/mL (≈ 2.16 µM); MIC50 (A. niger): 0.12 µg/mL (≈ 0.13 µM); MIC50 (A. terreus): 0.25 µg/mL (≈ 0.271 µM); MIC50 (R. pusillus): 0.06 µg/mL (≈ 0.0649 µM); MIC50 (A. fumigatus [2]): 0.25 µg/mL (≈ 0.271 µM); MIC50 (A. flavusalis): 0.25 µg/mL (≈ 0.271 µM); MIC50 (Acremonium): 16 µg/mL (≈ 17.3 µM); MIC50 (Pseudoallescheria): 8 µg/mL (≈ 8.66 µM); MIC50 (Mucor): 0.03 µg/mL (≈ 0.0325 µM); MIC50 (Trichoderma): 1 µg/mL (≈ 1.08 µM); MIC50 (A. corymbifera): 0.06 µg/mL (≈ 0.0649 µM); MIC50 (F. proliferatum): 1 µg/mL (≈ 1.08 µM); MIC50 (A. alliaceus): 16 µg/mL (≈ 17.3 µM)
C[C@@H](COC(F)(F)C(F)F)[C@](O)(Cn1cncn1)c1ccc(F)cc1F [Compound 2A, (-) (2R,3S)-2-(2,4-difluorophenyl)-4-(1,1,2,2-tetrafluoroethoxy)-3-methyl-1-(1H-1,2,4-triazol-1-yl)-2-butanol] | 0.32 | 8 (≈ 20.9 µM) | 0.0312 (≈ 0.0814 µM) | 9.3 | 0.25 (≈ 0.652 µM) | 14.6 | 8.84 | 3.5 | 
C[C@@H](COC(F)(F)C(F)F)[C@](O)(Cn1cncn1)c1ccc(Cl)cc1Cl [Compound 3A, (-) (2R,3S)-2-(2,4-dichlorophenyl)-4-(1,1,2,2-tetrafluoroethoxy)-3-methyl-1-(1H-1,2,4-triazol-1-yl)-2-butanol] | 0.38 | 2 (≈ 4.81 µM) | 0.0078 (≈ 0.0187 µM) | 6.9 | 0.0625 (≈ 0.15 µM) | 12.5 | 5.48 | 4.5 | IC50 (C. albicans 1040; [12]): 0.0078 µg/mL (≈ 0.0187 µM)
C[C@H](COC(F)(F)C(F)F)[C@@](O)(Cn1cncn1)c1ccc(Cl)cc1Cl [Compound 3B, (+) (2S,3R)-2-(2,4-dichlorophenyl)-4-(1,1,2,2-tetrafluoroethoxy)-3-methyl-1-(1H-1,2,4-triazol-1-yl)-2-butanol] | 4.57 | > 128 | 1 (≈ 2.4 µM) |  | 16 (≈ 38.4 µM) |  |  |  | IC50 (C. albicans 1040; [12]): 0.25 µg/mL (≈ 0.601 µM)
OC(Cn1cncn1)(Cn1cncn1)c1ccc(F)cc1F [Fluconazole, reference compound] | 0.61 |  |  | > 100 |  | 22.3 | 63.2 |  | MIC (A. fumigatus [1]): > 128 µg/mL; IC50 (C. neoformans; Cryptococcus neoformans, 48 h): 2 µg/mL (≈ 6.53 µM); MIC (T. mentagrophytes): 16 µg/mL (≈ 52.2 µM); IC50 (C. albicans 1040; Candida albicans, 1040, 48 h): 0.5 µg/mL (≈ 1.63 µM)
CCC(C)n1ncn(-c2ccc(N3CCN(c4ccc(OCC5COC(Cn6cncn6)(c6ccc(Cl)cc6Cl)O5)cc4)CC3)cc2)c1=O (stereo not shown) [Itraconazole, reference compound] | 1.74 |  |  | > 20 |  | > 25 | > 50 | 10.2 | 
